Measurements reported in ChEMBL document CHEMBL4251678, “Coculture of Two Developmental Stages of a Marine-Derived Aspergillus alliaceus Results in the Production of the Cytotoxic Bianthrone Allianthrone A” (J Nat Prod, 2018).
The source made the active and inactive calls. The rule behind the calls is not given here.

Assays:
SK-MEL-5 [1] = experiment: Cytotoxicity against human SK-MEL-5 cells assessed as reduction in cell viability after 48 hrs by MTT assay; type: functional, cell-based; conditions: SK-MEL-5, 48 h
HCT-116 [2] = experiment: Cytotoxicity against human HCT116 cells assessed as reduction in cell viability after 48 hrs by MTT assay; type: functional, cell-based; conditions: HCT-116, 48 h
A549 [3] = experiment: Cytotoxicity against human A549 cells assessed as reduction in cell viability after 48 hrs by MTT assay; type: functional, cell-based; conditions: A549, 48 h
PC-3 [4] = experiment: Cytotoxicity against human PC3 cells assessed as reduction in cell viability after 48 hrs by MTT assay; type: functional, cell-based; conditions: PC-3, 48 h
MCF7 [5] = experiment: Cytotoxicity against human MCF7 cells assessed as reduction in cell viability after 48 hrs by MTT assay; type: functional, cell-based; conditions: MCF7, 48 h
Enterococcus faecium = experiment: Antimicrobial activity against Enterococcus faecium ATCC 49032 at 20.5 to 43.5 ug/ml by microbroth method; type: functional, organism-based
Pseudomonas aeruginosa = experiment: Antimicrobial activity against Pseudomonas aeruginosa ATCC 15442 at 20.5 to 43.5 ug/ml by microbroth method; type: functional, organism-based
Escherichia coli = experiment: Antimicrobial activity against Escherichia coli ATCC 8739 at 20.5 to 43.5 ug/ml by microbroth method; type: functional, organism-based
Candida albicans = experiment: Antifungal activity against Candida albicans ATCC 90027 at 20.5 to 43.5 ug/ml by microbroth method; type: functional, organism-based
Bacillus subtilis = experiment: Antimicrobial activity against Bacillus subtilis ATCC 49343 at 20.5 to 43.5 ug/ml by microbroth method; type: functional, organism-based
Staphylococcus aureus = experiment: Antimicrobial activity against Staphylococcus aureus ATCC 25923 at 20.5 to 43.5 ug/ml by microbroth method; type: functional, organism-based
SK-MEL-5 [6] = experiment: Cytotoxicity against human SK-MEL-5 cells assessed as cell survival at 250 uM after 48 hrs by MTT assay; type: functional; conditions: SK-MEL-5, 48 h, read-out: Survival
HCT-116 [7] = experiment: Cytotoxicity against human HCT116 cells assessed as cell survival at 250 uM after 48 hrs by MTT assay; type: functional; conditions: HCT-116, 48 h, read-out: Survival
A549 [8] = experiment: Cytotoxicity against human A549 cells assessed as cell survival at 250 uM after 48 hrs by MTT assay; type: functional; conditions: A549, 48 h, read-out: Survival
PC-3 [9] = experiment: Cytotoxicity against human PC3 cells assessed as cell survival at 250 uM after 48 hrs by MTT assay; type: functional; conditions: PC-3, 48 h, read-out: Survival
MCF7 [10] = experiment: Cytotoxicity against human MCF7 cells assessed as cell survival at 250 uM after 48 hrs by MTT assay; type: functional; conditions: MCF7, 48 h, read-out: Survival

SMILES | IC50 (SK-MEL-5 [1]) [µM] | IC50 (HCT-116 [2]) [µM] | IC50 (A549 [3]) [µM] | IC50 (PC-3 [4]) [µM] | IC50 (MCF7 [5]) [µM] | Activity (Enterococcus faecium) | Activity (Pseudomonas aeruginosa) | Activity (Escherichia coli) | Activity (Candida albicans) | Activity (Bacillus subtilis) | Activity (Staphylococcus aureus) | viability at 250 µM (SK-MEL-5 [6]) [%] | viability at 250 µM (HCT-116 [7]) [%] | viability at 250 µM (A549 [8]) [%] | viability at 250 µM (PC-3 [9]) [%] | viability at 250 µM (MCF7 [10]) [%]
COc1cc2c(c(O)c1Cl)C(=O)c1c(O)cc(C[C@H](C)O)cc1[C@H]2[C@@H]1c2cc(C[C@H](C)O)cc(O)c2C(=O)c2c1cc(OC)c(Cl)c2O | 12.2 | 10.5 | > 20 | > 20 | > 20 | inactive | inactive | inactive | inactive | inactive | inactive |  |  |  |  | 
COc1cc2c(c(O)c1Cl)C(=O)c1c(O)cc(C[C@H](C)O)cc1[C@H]2[C@H]1c2cc(C[C@H](C)O)cc(O)c2C(=O)c2c1cc(OC)c(Cl)c2O | 11 | 9 | > 20 | > 20 | > 20 | inactive | inactive | inactive | inactive | inactive | inactive |  |  |  |  | 
COc1cc2c(c(O)c1Cl)C(=O)c1c(O)cc(C[C@H](C)O)cc1[C@@H]2[C@H]1c2cc(C[C@H](C)O)cc(O)c2C(=O)c2c1cc(OC)c(Cl)c2O | 19.7 | 13.7 | > 20 | > 20 | > 20 | inactive | inactive | inactive | inactive | inactive | inactive |  |  |  |  | 
COc1cc([C@@H]2c3cc4c(cc3[C@@H](O[C@@H]3O[C@@H]5CO[C@@H](C)O[C@H]5[C@H](O)[C@H]3O)[C@H]3COC(=O)[C@H]23)OCO4)cc(OC)c1O [ETOPOSIDE] |  |  |  |  |  |  |  |  |  |  |  | 26.4 | 11.6 | 19.7 | 45.5 | 43.8
